Data published in patent US9283280B2, “Compositions for drug administration” (Aegis Therapeutics, LLC, priority 2008, dated 2016).
Each block holds one compound with its values, some of them ahead of it.

Key:
[1] = cited from earlier work
[2] = Naratriptan sublingual spray two-way crossover study in patients; assay type: in vivo; conditions: in the presence of 0.18-0.2% alkylsaccharide (dodecylmaltoside)
Description: Manufacturing process: Naratriptan hydrochloride salt is dissolved in water and required quantity of polyethylene glycol or ethanol is added. The alkyl glycoside, flavors, aspartame are next dissolved in the solution. Final adjustment of volume is made with water. The sublingual formulation with and without dodecylmaltoside alkylsaccharide is administered using a metered spray pump to 20 patients in a two way, two period cross over study.

[3] = system: blood D-glucose; assay: Insulin eye drops with absorption enhancer in xylazine/ketamine-anesthetized hyperglycemic rats, blood D-glucose; assay type: in vivo, rat; conditions: for Blood Glucose: before eye drops
[4] = system: human nasal epithelium; conditions: in vivo
[5] = system: Aspergillus niger (ATCC No. 16404); assay: Antimicrobial activity of alkylglycoside solutions, plate count log reduction; assay type: cell-based; conditions: 0.2%, BSA
Description: (§1) 20110-2209. The viable microorganisms used in the invention were not more than five passages removed from the original ATCC culture. As described herein, one passage is defined as the transfer of organisms from an established culture to fresh medium and all transfers are counted.
(§2) Cultures received from the ATCC are resuscitated according to the directions provided by the ATTC. Cells grown in broth were pelleted by centrifugation, resuspended in 1/20th the volume of fresh maintenance broth, and combined with an equal volume of 20% (v/v in water) sterile glycerol. Cells grown on agar were scraped from the surface into the maintenance broth also containing 10% glycerol broth. Small aliquots of the suspension were dispensed into sterile vials and the vials were stored in liquid nitrogen or in a mechanical freezer at a temperature no higher than about −50° C. When a fresh seed-stock vial was required, it was removed and used to inoculate a series of working stock cultures. These working stock cultures were then used periodically (each day in the case of bacteria and yeast) to start the inoculum culture.
(§3) The culture conditions for the inoculum culture is substantially as described in Table IV. For example, suitable media can include but is not limited to, Soybean-Casein Digest or Sabouraud Dextrose Agar Medium. […]
(§4) The suspension should be refrigerated if it is not used within 2 hours. To confirm the initial cfu per mL estimate, the number of cfu per mL in each suspension was determined using the conditions of media and microbial recovery incubation times listed in Table IV (e.g., from about 3 to about 7 days). This value serves to calibrate the size of inoculum used in the test. The bacterial and yeast suspensions were used within 24 hours of harvest; whereas the fungal preparation can be stored under refrigeration for up to 7 days.
(§5) To determine which alkylglycoside formulations have antibacterial activity, the formulations were prepared in phosphate buffered saline (PBS) at pH 7. As a source of nutrition, either 1.5 mg/mL bovine serum albumin (BSA; see Tables V and VI) or 1 mg/mL of PYY was added (see Table VII) to the medium. BSA (CAS Number: 9048-46-8) was obtained from Sigma-Aldrich, St. Louis, Mo., USA, n-dodecyl-4-O-α-D-glucopyranosyl-β-D-glucopyranoside and n-tetradecyl-4-O-α-D-glucopyranosyl-β-D-glucopyranoside were obtained from Anatrace Inc., Maumee, Ohio, USA, and PYY was obtained from Bachem California Inc., Torrance, Calif., USA.
(§6) Antibacterial activity of the alkylglycosides were conducted in four sterile, capped bacteriological containers of suitable size into which a sufficient volume of alkylglycoside solution had been transferred. Each container was inoculated with one of the prepared and standardized inoculums and mixed. The volume of the suspension inoculum was between about 0.5% and about 1.0% of the volume of the alkylglycoside solution. […]. To determine the level of inhibition of growth, or reduction of growth based on a logarithmic scale, the initial concentration of viable microorganisms in each test preparation was estimated based on the concentration of microorganisms in each of the standardized inoculum as determined by the plate-count method. The inoculated containers were then incubated at about 22.5° C.±2.5. The growth or non-growth of the microorganisms in each culture/container were again determined at day 14 and day 28. The number of cfu present in each calculation was determined by the plate-count procedure standard in the art for the applicable intervals. The change in the orders of magnitude of bacterium and/or fungi was then determined by subtracting the first calculated log 10 values of the concentrations of cfu per mL present at the start or beginning (e.g., day 0), from the log 10 values of the concentration of cfu per mL for each microorganism at the applicable test intervals (e.g., day 14 and day 28; see Tables V, VI and VII).

[6] = system: Candida albicans (ATCC No. 10231); assay: as above; assay type: cell-based; conditions: 0.2%, BSA
Description: as §1, §2, §3, §4, §5, §6

[7] = system: Escherichia coli (ATCC No. 8739); assay: as above; assay type: cell-based; conditions: 0.2%, BSA; growth from initial count
Description: as §1, §2, §3, §4, §5, §6

[8] = system: Staphylococcus aureus (ATCC No. 6538); assay: as above; assay type: cell-based; conditions: 0.2%, BSA
Description: as §1, §2, §3, §4, §5, §6

[9] = system: blood D-glucose; assay: Insulin nose drops with tetradecylmaltoside in rats, blood glucose; assay type: in vivo, rat; conditions: nose drop, same insulin concentration with 0.5% tetradecylmaltoside
Description: Tetradecylmaltoside (TDM) in combination with insulin also produced a drop in blood D-glucose levels when administered in the form of a drop intranasally as well as via a drop by the ocular route. […] Thus, intranasal delivery and administration of the alkyl saccharide with drug results in lowering of blood glucose levels.

[10] = Intranasal triptans with alkylsaccharide in rats, plasma levels by HPLC; assay type: in vivo;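 note: rats in groups of eight given 20 µL into one nostril, dose expressed as triptan free base, Cmax and Tmax read from plasma concentration–time curves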
[11] = Naratriptan 0.22 mg/kg intranasal, alkylsaccharide 0.02%
[12] = Naratriptan 0.22 mg/kg intranasal, alkylsaccharide 0.05%
[13] = Naratriptan 0.22 mg/kg intranasal, alkylsaccharide 0.1%
[14] = Naratriptan 0.22 mg/kg intranasal, alkylsaccharide 0.5%
[15] = Naratriptan 0.22 mg/kg intranasal, alkylsaccharide 2%
[16] = Sumatriptan 6.2 mg/kg intranasal, alkylsaccharide 0.02%
[17] = Sumatriptan 6.2 mg/kg intranasal, alkylsaccharide 0.05%
[18] = Sumatriptan 6.2 mg/kg intranasal, alkylsaccharide 0.1%
[19] = Sumatriptan 6.2 mg/kg intranasal, alkylsaccharide 0.5%
[20] = Sumatriptan 6.2 mg/kg intranasal, alkylsaccharide 2%

SMILES: O=C(c1ccc(OCCN2CCCCC2)cc1)c1c(-c2ccc(O)cc2)sc2cc(O)ccc12 [raloxifene]
water solubility [1]: approx. 0.25 mg/L

bioavailability across the sublingual mucosal membranes [2]: little increase
SMILES: CNS(=O)(=O)CCc1ccc2[nH]cc(C3CCN(C)CC3)c2c1 [naratriptan]

SMILES: CCCCCCCCCCCCCCO[C@@H]1O[C@H](CO)[C@@H](O[C@H]2O[C@H](CO)[C@@H](O)[C@H](O)[C@H]2O)[C@H](O)[C@H]1O [tetradecyl maltoside, n-tetradecyl-4-O-α-D-glucopyranosyl-β-D-glucopyranoside]
hypoglycemic effect / insulin absorption enhancement ([3]; eye drops 0.2% insulin + 0.5% enhancer): effective
hypoglycemic effect / insulin absorption enhancement ([3]; eye drops 0.2% insulin + […] enhancer): effective
effect on blood glucose levels ([3]; eye drops 0.2% regular porcine insulin with […] tetradecylmaltoside): prompt and prominent drop in blood glucose levels
Blood Glucose ([3]; time −10 min): 311 mg/dL
Blood Glucose ([3]; time −20 min): 319 mg/dL
irritation of the nasal mucosa [4]: no observable irritation
Log Reductions, Day 14 [5]: 0.5 orders of orders of magnitude reduction
Log Reductions, Day 28 ([5]; growth from initial count): No growth
Log Reductions, Day 14 [6]: 3.0 orders of orders of magnitude reduction
Log Reductions, Day 28 [6]: ≧5.4 orders of orders of magnitude reduction
Log Reductions, Day 28 [7]: No growth
Log Reductions, Day 14 [8]: ≧5 orders of orders of magnitude reduction
Log Reductions, Day 28 [8]: ≧5 orders of orders of magnitude reduction
effect on blood glucose levels [9]: decrease even more
Ratio Cmax(alkylsacch)/Cmax(No alkylsacch) [10, 11]: ≦1.5
Tmax [10, 11]: ~60 min
Ratio Cmax(alkylsacch)/Cmax(No alkylsacch) [10, 12]: ≧1.5
Tmax [10, 12]: ~5 to 15 min
Ratio Cmax(alkylsacch)/Cmax(No alkylsacch) [10, 13]: ≧1.5
Tmax [10, 13]: ~5 to 15 min
Ratio Cmax(alkylsacch)/Cmax(No alkylsacch) [10, 14]: ≧1.5
Tmax [10, 14]: ~5 to 15 min
Ratio Cmax(alkylsacch)/Cmax(No alkylsacch) [10, 15]: ≧1.5
Tmax [10, 15]: ~5 to 15 min
Tmax ([10]; Rizatriptan […] intranasal, alkylsaccharide 0.02%): ~60 min
Tmax ([10]; Rizatriptan […] intranasal, alkylsaccharide 0.05%): ~5 to 15 min
Tmax ([10]; Rizatriptan […] intranasal, alkylsaccharide 0.1%): ~5 to 15 min
Tmax ([10]; Rizatriptan […] intranasal, alkylsaccharide 0.5%): ~5 to 15 min
Tmax ([10]; Rizatriptan […] intranasal, alkylsaccharide 2%): ~5 to 15 min
Ratio Cmax(alkylsacch)/Cmax(No alkylsacch) [10, 16]: ≦1.5
Tmax [10, 16]: ~60 min
Ratio Cmax(alkylsacch)/Cmax(No alkylsacch) [10, 17]: ≧1.5
Tmax [10, 17]: ~5 to 15 min
Ratio Cmax(alkylsacch)/Cmax(No alkylsacch) [10, 18]: ≧1.5
Tmax [10, 18]: ~5 to 15 min
Ratio Cmax(alkylsacch)/Cmax(No alkylsacch) [10, 19]: ≧1.5
Tmax [10, 19]: ~5 to 15 min
Ratio Cmax(alkylsacch)/Cmax(No alkylsacch) [10, 20]: ≧1.5
Tmax [10, 20]: ~5 to 15 min
